Laboratory results taken from patent US12583818B2 (DAEGU-GYEONGBUK MEDICAL INNOVATION FOUNDATION, priority 2020, dated 2026).

Molecular target: T1, Pin1 (Homo sapiens, UniProt Q13526)
T1 construct: purchased Anaspec
Assay: Evaluation of Pin1 enzyme inhibitory activity (Sensolyte Green Pin1 assay kit)
Format: biochemical
Conditions: Table 2; read-out: concentration at which Pin1 inhibitory activity was exhibited
Protocol: In order to evaluate the Pin1 enzyme inhibitory activity of the compound represented by formula 1 according to the present invention, the following experiment was performed, and the results are shown in Table 2 below.
The enzyme activity of Pin1 protein was measured using a sensolyte Green Pin1 assay kit of Anaspec. The substrate was diluted in a buffer at a ratio of 1:100 to prepare a concentration of 1 μM, and the protein was diluted in a buffer at a ratio of 1:20 to prepare a concentration of 50 μg/ml. In addition, a developing solution was prepared by diluting thereof in a buffer at a ratio of 1:100.
The compound prepared in each example was diluted with DMSO and prepared at a concentration of 100 μM, 10 μM, 1 μM or 0.1 μM using a buffer. After sequentially adding 10 μl of the compound prepared in each Example diluted to four concentrations according to the above method, 10 μl of Pin1 protein, and 30 μl of the developing solution to each well of a black 96-well plate, […]. Finally, 50 μl of the substrate was added to each well of the plate, and the enzyme reaction was carried out after shaking the plate for 10 seconds.
Then, the plate was incubated for 2 hours at room temperature in an environment without light, and the fluorescence values at 490 nm/520 nm wavelength were measured using a device of Synergy Neo […]. The results are shown in Table 2 below by dividing the grades of A to D for each concentration (μM) at which the Pin1 enzyme activity is inhibited.

T1 sequence (Q13526 whole entry): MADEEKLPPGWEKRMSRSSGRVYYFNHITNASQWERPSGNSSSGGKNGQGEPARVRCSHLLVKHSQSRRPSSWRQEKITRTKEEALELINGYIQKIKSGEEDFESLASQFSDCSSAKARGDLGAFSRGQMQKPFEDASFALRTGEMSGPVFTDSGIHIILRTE

| IC50 | Compound |
| --- | --- |
| < 1 µM | O=S(=O)(NCCCc1c[nH]c2ccc(Cl)cc12)c1ccc(OCCCN2CCCCCC2)cc1 [Example 101, 4-(3-(azepan-1-yl)propoxy)-N-(3-(5-chloro-1H-indol-3-yl)propyl)benzenesulfonamide] |

Same assay, conditions: concentration at which the Pin1 enzyme activity is inhibited; 2 hours at room temperature, fluorescence 490 nm/520 nm; read-out: Pin 1 inhibition

| Compound | IC50 |
| --- | --- |
| Cc1[nH]c2ccccc2c1CCNS(=O)(=O)c1ccc(OCCCN2CCN(C)CC2)cc1 [Example 54, N-(2-(2-methyl-1H-indol-3-yl)ethyl)-4-(3-(4-methylpiperazin-1-yl)propoxy)benzenesulfonamide] | 10 to 100 µM |
| CCCCOc1ccc(S(=O)(=O)NCCCN2CCN(C(C)C)CC2)cc1 [Example 2, 4-butoxy-N-(3-(4-isopropylpiperazin-1-yl)propyl)benzenesulfonamide] | > 100 µM |
| CCCCOc1ccc(S(=O)(=O)NCCCc2nc3ccccc3[nH]2)cc1 [Example 28, N-(3-(1H-benzo[d]imidazol-2-yl)propyl)-4-butoxybenzenesulfonamide] | > 100 µM |
| CCCCOc1ccc(S(=O)(=O)NCCCn2cnc3ccccc32)cc1 [Example 33, N-(3-(1H-benzo[d]imidazol-1-yl)propyl)-4-butoxybenzenesulfonamide] | > 100 µM |
| CN1CCN(CCCOc2ccc(S(=O)(=O)NC3CCCC(c4c[nH]c5ccccc45)C3)cc2)CC1 (stereo not drawn) [Example 85, N-(3-(1H-indole-3-yl)cyclohexyl)-4-(3-(4-methylpiperazine-1-yl)propoxy)benzenesulfonamide] | 10 to 100 µM |
| CCCCOc1ccc(S(=O)(=O)NCCCc2cccnc2)cc1 [Example 5, 4-butoxy-N-(3-(pyridin-3-yl)propyl)benzensulfonamide] | > 100 µM |
| CCCCOc1ccc(S(=O)(=O)NCCCN2CCOCC2)cc1 [Example 6, 4-butoxy-N-(3-morpholinopropyl)benzenesulfonamide] | > 100 µM |
| CCCCOc1ccc(S(=O)(=O)NCCC(O)c2ccccc2)cc1 (stereo not drawn) [Example 11, 4-butoxy-N-(3-hydroxy-3-phenylpropyl)benzenesulfonamide] | 10 to 100 µM |
| CCCCOc1ccc(S(=O)(=O)NCCc2ccc(N3CCOCC3)cc2)cc1 [Example 7, 4-butoxy-N-(4-morpholinophenethyl)benzenesulfonamide] | > 100 µM |

Continued, values first:

| IC50 | Compound |
| --- | --- |
| 10 to 100 µM | CC(C)N1CCN(CCOc2ccc(S(=O)(=O)NCCCc3c[nH]c4ccccc34)cc2)CC1 [Example 53, N-(3-(1H-indol-3-yl)propyl)-4-(2-(4-isopropylpiperazin-1-yl)ethoxy)benzenesulfonamide] |
| 1 to 10 µM | O=S(=O)(NCCCc1c[nH]c2ccc(Cl)cc12)c1ccc(Oc2cccc(N3CCC(O)CC3)c2)cc1 [Example 136, N-(3-(5-chloro-1H-indol-3-yl)propyl)-4-(3-(4-hydroxypiperidin-1-yl)phenoxy)benzenesulfonamide] |
| 1 to 10 µM | CN1CCN(CCCOc2ccc(S(=O)(=O)NCCCc3c[nH]c4ccc(-c5ccccc5)cc34)cc2)CC1 [Example 156, 4-(3-(4-methylpiperazin-1-yl)propoxy)-N-(3-(5-phenyl-1H-indol-3-yl)propyl)benzenesulfonamide] |
| 1 to 10 µM | O=S(=O)(NCCCc1c[nH]c2ccc(Cl)cc12)c1cccc(OCCCC2CCNCC2)c1 [Example 94, N-(3-(5-chloro-1H-indol-3-yl)propyl)-3-(3-(piperidin-4-yl)propoxy)benzenesulfonamide] |
| < 1 µM | O=S(=O)(NCCCc1c[nH]c2ccc(Cl)cc12)c1ccc(OCCCN2CCCCCC2)cc1 [Example 101, 4-(3-(azepan-1-yl)propoxy)-N-(3-(5-chloro-1H-indol-3-yl)propyl)benzenesulfonamide] |
| 1 to 10 µM | CN1CCN(c2cccc(Nc3ccc(S(=O)(=O)NCCCc4c[nH]c5ccc(Cl)cc45)cc3)n2)CC1 [Example 131, N-(3-(5-chloro-1H-indol-3-yl)propyl)-4-((6-(4-methylpiperazin-1-yl)pyridin-2-yl)amino)benzenesulfonamide] |
| > 100 µM | O=S(=O)(NCCCc1c[nH]c2ccccc12)c1ccc(OCCCN2CCOCC2)cc1 [Example 30, N-(3-(1H-indol-3-yl)propyl)-4-(3-morpholinopropoxy)benzenesulfonamide] |
| > 100 µM | O=S(=O)(NCCCc1c[nH]c2ccccc12)c1ccc(Br)cc1 [Example 47, N-(3-(1H-indole-3-yl)propyl)-4-bromobenzenesulfonamide] |
